# From ChEMBL document CHEMBL4665709, “Rational Avoidance of Protease Cleavage Sites and Symmetrical End-Tagging Significantly Enhances the Stability and Therapeutic Potential of Antimicrobial Peptides” (J Med Chem, 2020)
# Where a SMILES comes first, the peptide text is derived from it.
# Key:
# [1] = Therapeutic index, ratio of MHC for human RBC to geometric mean of peptide MIC for Staphylococcus aureus 11011; type: toxicity; details: human red blood cells (RBC), read-out: TI
# [2] = Therapeutic index, ratio of MHC for human RBC to geometric mean of peptide MIC for Streptococcus agalactiae H92; type: toxicity; details: human red blood cells (RBC), read-out: TI
# [3] = Hemolytic activity in human RBC assessed as hemolysis at 1 to 128 uM relative to control; type: ADME, cell-based, Erythrocyte; details: human red blood cells (RBC), dose 1-128 µM, read-out: Activity
# Staphylococcus aureus [4] = assay: Antibacterial activity against Staphylococcus aureus 11011 after 18 to 24 hrs by CLSI-based broth microdilution method; type: functional; details: time hrs 18-24
# [5] = Therapeutic index, ratio of MHC for human RBC to geometric mean of peptide MIC for Enterococcus faecalis ATCC 29212; type: toxicity; details: human red blood cells (RBC), read-out: TI
# [6] = Therapeutic index, ratio of MHC for human RBC to geometric mean of peptide MIC for Staphylococcus aureus ATCC 29213; type: toxicity; details: human red blood cells (RBC), read-out: TI
# [7] = Therapeutic index, ratio of MHC for human RBC to geometric mean of peptide MIC for Salmonella pullorum 7913; type: toxicity; details: human red blood cells (RBC), read-out: TI
# Staphylococcus aureus [8] = assay: Antibacterial activity against Staphylococcus aureus ATCC 29213 after 18 to 24 hrs by CLSI-based broth microdilution method; type: functional; details: time hrs 18-24
# Escherichia coli [9] = assay: Antibacterial activity against Escherichia coli ATCC 25922 after 18 to 24 hrs by CLSI-based broth microdilution method; type: functional; details: time hrs 18-24
# Salmonella enterica = assay: Antibacterial activity against Salmonella choleraesuis 503 after 18 to 24 hrs by CLSI-based broth microdilution method; type: functional; details: time hrs 18-24
# Salmonella typhimurium [10] = assay: Antibacterial activity against Salmonella typhimurium 7731 after 18 to 24 hrs by CLSI-based broth microdilution method; type: functional, Salmonella enterica subsp. enterica serovar Typhimurium; details: Salmonella enterica, time hrs 18-24
# [11] = Therapeutic index, ratio of MHC for human RBC to geometric mean of peptide MIC for Salmonella typhimurium 14028; type: toxicity; details: human red blood cells (RBC), read-out: TI
# Escherichia coli [12] = assay: Antibacterial activity against Escherichia coli UB1005 after 18 to 24 hrs by CLSI-based broth microdilution method; type: functional; details: time hrs 18-24
# [13] = Antibacterial activity against Salmonella pullorum 7913 after 18 to 24 hrs by CLSI-based broth microdilution method; type: functional, Salmonella enterica subsp. enterica serovar Pullorum; details: Salmonella enterica, time hrs 18-24
# [14] = Cytotoxicity against HEK-293T cells assessed as cell viability at 128 uM by MTT assay relative to control; type: cell-based; details: human, read-out: Activity
# Erythrocyte = assay: Hemolytic activity in human RBC assessed as hemolysis; type: ADME, cell-based
# [15] = Therapeutic index, ratio of MHC for human RBC to geometric mean of peptide MIC for Salmonella typhimurium 7731; type: toxicity; details: human red blood cells (RBC), read-out: TI
# Streptococcus agalactiae = assay: Antibacterial activity against Streptococcus agalactiae H92 after 18 to 24 hrs by CLSI-based broth microdilution method; type: functional; details: time hrs 18-24
# [16] = Therapeutic index, ratio of MHC for human RBC to geometric mean of peptide MIC for Salmonella choleraesuis 503; type: toxicity; details: human red blood cells (RBC), read-out: TI
# [17] = Cytotoxicity against mouse RAW264.7 cells assessed as cell viability at 128 uM by MTT assay relative to control; type: cell-based; details: read-out: Activity
# [18] = test system: Staphylococcus epidermidis; assay: Antibacterial activity against Staphylococcus epidermidis ATCC 12228 after 18 to 24 hrs by CLSI-based broth microdilution method; type: functional; details: time hrs 18-24
# [19] = Therapeutic index, ratio of MHC for human RBC to geometric mean of peptide MIC for Escherichia coli ATCC 25922; type: toxicity; details: human red blood cells (RBC), read-out: TI
# [20] = Therapeutic index, ratio of MHC for human RBC to geometric mean of peptide MIC for Staphylococcus epidermidis ATCC 12228; type: toxicity; details: human red blood cells (RBC), read-out: TI
# Staphylococcus aureus [21] = assay: Antibacterial activity against methicillin-resistant Staphylococcus aureus 43300 after 18 to 24 hrs by CLSI-based broth microdilution method; type: functional; details: time hrs 18-24
# [22] = Therapeutic index, ratio of MHC for human RBC to geometric mean of peptide MIC for Escherichia coli UB1005; type: toxicity; details: human red blood cells (RBC), read-out: TI
# Salmonella typhimurium [23] = assay: Antibacterial activity against Salmonella typhimurium 14028 after 18 to 24 hrs by CLSI-based broth microdilution method; type: functional, Salmonella enterica subsp. enterica serovar Typhimurium; details: Salmonella enterica, time hrs 18-24
# Enterococcus faecalis = assay: Antibacterial activity against Enterococcus faecalis ATCC 29212 after 18 to 24 hrs by CLSI-based broth microdilution method; type: functional; details: time hrs 18-24
# [24] = Therapeutic index, ratio of MHC for human RBC to geometric mean of peptide MIC for methicillin-resistant Staphylococcus aureus 43300; type: toxicity; details: human red blood cells (RBC), read-out: TI
Structure (SMILES),selectivity ratio [1],selectivity ratio [2],hemolysis at up to 128 µM [3] [%],MIC (Staphylococcus aureus [4]) [µM],selectivity ratio [5],selectivity ratio [6],selectivity ratio [7],MIC (Staphylococcus aureus [8]) [µM],MIC (Escherichia coli [9]) [µM],MIC (Salmonella enterica) [µM],MIC (Salmonella typhimurium [10]) [µM],selectivity ratio [11],MIC (Escherichia coli [12]) [µM],MIC [13] [µM],viability at 128 µM [14] [%],MHC (Erythrocyte) [µM],selectivity ratio [15],MIC (Streptococcus agalactiae) [µM],selectivity ratio [16],viability at 128 µM [17] [%],other results
CC(C)[C@H](N)C(=O)N[C@@H](CS)C(=O)N[C@@H](CCCNC(=N)N)C(=O)N[C@@H](CCCCN)C(=O)N1CCC[C@H]1C(=O)N[C@H](C(=O)N[C@H](C(=O)N[C@@H](CS)C(=O)N[C@@H](CCCNC(=N)N)C(=O)N[C@@H](CCCCN)C(=O)N1CCC[C@H]1C(=O)N[C@H](C(=O)N[C@H](C(=O)N[C@@H](CS)C(=O)N[C@@H](CCCNC(=N)N)C(=O)N[C@@H](CCCCN)C(=O)N1CCC[C@H]1C(=O)N[C@H](C(=O)N[C@H](C(=O)N[C@@H](CS)C(=O)N[C@@H](CCCNC(=N)N)C(=O)N[C@@H](CCCCN)C(=O)N1CCC[C@H]1C(=O)N[C@H](C(=O)N[C@H](C(=O)N[C@@H](CS)C(=O)N[C@@H](CCCNC(=N)N)C(=O)N[C@@H](CCCCN)C(=O)N1CCC[C@H]1C(=O)N[C@H](C(N)=O)C(C)C)C(C)C)C(C)C)C(C)C)C(C)C)C(C)C)C(C)C)C(C)C)C(C)C (H-VCRKPVVCRKPVVCRKPVVCRKPVVCRKPV-NH2),2,2,< 5,> 64,2,2,16,> 64,4,> 64,4,16,4,16,> 90,> 128,16,> 64,16,> 90,MIC [18]: > 64 µM; selectivity ratio [19]: 16; selectivity ratio [20]: 2; MIC (Staphylococcus aureus [21]): > 64 µM; selectivity ratio [22]: 16; MIC (Salmonella typhimurium [23]): 4 µM; MIC (Enterococcus faecalis): > 64 µM; selectivity ratio [24]: 2
CC(C)[C@H](N)C(=O)N[C@@H](CS)C(=O)N[C@@H](CCCNC(=N)N)C(=O)N[C@@H](CCCCN)C(=O)N1CCC[C@H]1C(=O)N[C@H](C(=O)N[C@H](C(=O)N[C@@H](CS)C(=O)N[C@@H](CCCNC(=N)N)C(=O)N[C@@H](CCCCN)C(=O)N1CCC[C@H]1C(=O)N[C@H](C(=O)N[C@H](C(=O)N[C@@H](CS)C(=O)N[C@@H](CCCNC(=N)N)C(=O)N[C@@H](CCCCN)C(=O)N1CCC[C@H]1C(=O)N[C@H](C(=O)N[C@H](C(=O)N[C@@H](CS)C(=O)N[C@@H](CCCNC(=N)N)C(=O)N[C@@H](CCCCN)C(=O)N1CCC[C@H]1C(=O)N[C@H](C(N)=O)C(C)C)C(C)C)C(C)C)C(C)C)C(C)C)C(C)C)C(C)C (H-VCRKPVVCRKPVVCRKPVVCRKPV-NH2),2,2,< 5,> 64,2,2,8,> 64,8,> 64,8,8,8,64,> 90,> 128,8,> 64,8,> 90,MIC [18]: > 64 µM; selectivity ratio [19]: 8; selectivity ratio [20]: 2; MIC (Staphylococcus aureus [21]): > 64 µM; selectivity ratio [22]: 8; MIC (Salmonella typhimurium [23]): 8 µM; MIC (Enterococcus faecalis): > 64 µM; selectivity ratio [24]: 2
CC[C@H](C)[C@H](N)C(=O)N[C@H](C(=O)N[C@H](C(=O)N[C@@H](CS)C(=O)N[C@@H](CCCNC(=N)N)C(=O)N[C@@H](CCCCN)C(=O)N1CCC[C@H]1C(=O)N[C@H](C(=O)N[C@H](C(=O)N[C@@H](CS)C(=O)N[C@@H](CCCNC(=N)N)C(=O)N[C@@H](CCCCN)C(=O)N1CCC[C@H]1C(=O)N[C@H](C(=O)N[C@H](C(=O)N[C@H](C(N)=O)[C@@H](C)CC)[C@@H](C)CC)[C@@H](C)CC)[C@@H](C)CC)[C@@H](C)CC)[C@@H](C)CC)[C@@H](C)CC (H-IIICRKPIICRKPIII-NH2),2,2,< 5,> 64,2,2,6.35,> 64,8,32,32,6.35,8,32,> 90,> 128,6.35,64,6.35,> 90,MIC [18]: > 64 µM; selectivity ratio [19]: 6.35; selectivity ratio [20]: 2; MIC (Staphylococcus aureus [21]): > 64 µM; selectivity ratio [22]: 6.35; MIC (Salmonella typhimurium [23]): 32 µM; MIC (Enterococcus faecalis): > 64 µM; selectivity ratio [24]: 2
